Read-outs that look alike come from different tables or passages of the source.
What was measured:
[1] = ester bond, DIAD/PPh3, toluene, 23.0 °C, 1.5 h, 2 steps
[2] = in vivo; cited from earlier work
panel of kinases (402) = assay: larger panel of kinases (402), competition binding, whole panel; details: 1 μM
Experimental: (§1) Two representative library members (1afh and 1bgi) were then evaluated in a larger panel of kinases (402) using the technology described by Lockhart et al. (M. A. Fabian, et al., Nat. Biotechnol. 2005, 23, 329-336; M. W. Karaman, et al., Nat. Biotechnol. 2008, 26, 127-132). In this panel, 31 kinases out of the 46 kinases bioinformatically identified by Santi and coworkers are present along with numerous other kinases bearing a cysteine residue at other positions within the ATP-binding pocket (J. Zhang, P. L. Yang, N. S. Gray, Nat. Rev. Cancer 2009, 9, 28-39).
(§2) The selectivity profile was measure using the KinomeScan™ technology (http://www.kinomescan.com/) based on active-site dependent competition binding assay (Karaman, M. W., et al. (2008) Nat. Biotechnol. 26, 127-32; Fabian, M. A., et al. (2005) Nat. Biotechnol. 23, 329-36). Compounds 3 and 5 were profiled against a panel of 50 kinases including 42 kinases from the group of 48 kinases predicted by Santi et al. (Schirmer, A., et al. (2006) Proc. Natl. Acad. Sci. USA 103, 4234-9) to be targeted by hypothemycin and 5 mutants of FLT3 as well as 3 mutants of KIT. Both compounds were assayed at 1 μM. The results are expressed as a percentage of signal between a negative (DMSO) and positive (know binder) control [(test compound−positive control)/([…])×100].

Flt1 = target: T1, Flt1 (Homo sapiens, UniProt P17948); assay: panel of 402 kinases: Flt1; format: binding; details: read-out: residual activity relatively to control
T1 construct: purchased KinomeScan
Experimental: as §1, §2

Flt3 = target: T2, Flt3 (Homo sapiens, UniProt P36888); assay: panel of 402 kinases: Flt3; format: binding; details: read-out: residual activity relatively to control
T2 construct: purchased KinomeScan
Experimental: as §1, §2

GAK = target: T3, GAK (Homo sapiens, UniProt O14976); assay: panel of 402 kinases: GAK; format: binding; details: read-out: residual activity relatively to control
T3 construct: purchased KinomeScan
Experimental: as §1, §2

KIT = KIT (Homo sapiens, UniProt P10721); assay: panel of 402 kinases: KIT; format: binding; details: read-out: residual activity relatively to control
KIT, sequence (P10721 26-976): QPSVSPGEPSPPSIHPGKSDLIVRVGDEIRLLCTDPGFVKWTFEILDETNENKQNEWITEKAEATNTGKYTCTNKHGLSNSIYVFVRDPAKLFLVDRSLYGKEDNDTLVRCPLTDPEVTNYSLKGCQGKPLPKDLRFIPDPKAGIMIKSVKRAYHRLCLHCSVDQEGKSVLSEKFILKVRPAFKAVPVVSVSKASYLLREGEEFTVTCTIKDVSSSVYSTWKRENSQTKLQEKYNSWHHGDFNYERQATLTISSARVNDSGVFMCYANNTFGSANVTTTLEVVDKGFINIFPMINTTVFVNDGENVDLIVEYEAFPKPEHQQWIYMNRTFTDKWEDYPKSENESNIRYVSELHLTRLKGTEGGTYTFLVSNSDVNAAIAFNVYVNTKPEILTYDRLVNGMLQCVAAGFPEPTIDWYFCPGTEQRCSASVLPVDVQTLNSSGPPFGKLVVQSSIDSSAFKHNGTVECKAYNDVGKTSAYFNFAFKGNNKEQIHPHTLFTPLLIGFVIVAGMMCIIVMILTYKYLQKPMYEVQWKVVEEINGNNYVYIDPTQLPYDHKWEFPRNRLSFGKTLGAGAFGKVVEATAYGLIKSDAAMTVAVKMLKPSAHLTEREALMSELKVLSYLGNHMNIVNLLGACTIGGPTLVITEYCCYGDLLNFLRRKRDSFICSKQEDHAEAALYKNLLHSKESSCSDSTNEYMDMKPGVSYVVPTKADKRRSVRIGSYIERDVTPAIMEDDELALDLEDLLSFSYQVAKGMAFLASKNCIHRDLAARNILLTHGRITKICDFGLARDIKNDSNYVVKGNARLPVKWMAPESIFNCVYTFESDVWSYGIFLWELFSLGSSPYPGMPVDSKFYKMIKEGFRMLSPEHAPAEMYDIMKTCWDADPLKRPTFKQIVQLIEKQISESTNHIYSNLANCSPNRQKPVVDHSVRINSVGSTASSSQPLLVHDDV
Experimental: as §1, §2

MEK1 = MEK1 (Homo sapiens, UniProt Q02750); assay: panel of 402 kinases: MEK1; format: binding; details: read-out: residual activity relatively to control
MEK1, sequence (Q02750 whole entry): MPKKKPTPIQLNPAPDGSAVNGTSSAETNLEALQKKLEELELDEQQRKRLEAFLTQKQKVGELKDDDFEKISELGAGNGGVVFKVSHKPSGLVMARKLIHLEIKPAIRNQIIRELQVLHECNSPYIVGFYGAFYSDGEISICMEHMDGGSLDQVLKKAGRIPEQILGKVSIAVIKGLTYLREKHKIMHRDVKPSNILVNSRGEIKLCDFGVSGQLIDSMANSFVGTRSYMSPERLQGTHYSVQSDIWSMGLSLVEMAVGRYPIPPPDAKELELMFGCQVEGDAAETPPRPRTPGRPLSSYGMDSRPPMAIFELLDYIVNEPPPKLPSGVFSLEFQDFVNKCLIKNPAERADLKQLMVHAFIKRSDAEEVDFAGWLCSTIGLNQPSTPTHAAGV
Experimental: as §1, §2

MEK2 = target: T4, MEK2 (Homo sapiens, UniProt P36507); assay: panel of 402 kinases: MEK2; format: binding; details: read-out: residual activity relatively to control
T4 construct: purchased KinomeScan
T4 sequence (P36507 whole entry): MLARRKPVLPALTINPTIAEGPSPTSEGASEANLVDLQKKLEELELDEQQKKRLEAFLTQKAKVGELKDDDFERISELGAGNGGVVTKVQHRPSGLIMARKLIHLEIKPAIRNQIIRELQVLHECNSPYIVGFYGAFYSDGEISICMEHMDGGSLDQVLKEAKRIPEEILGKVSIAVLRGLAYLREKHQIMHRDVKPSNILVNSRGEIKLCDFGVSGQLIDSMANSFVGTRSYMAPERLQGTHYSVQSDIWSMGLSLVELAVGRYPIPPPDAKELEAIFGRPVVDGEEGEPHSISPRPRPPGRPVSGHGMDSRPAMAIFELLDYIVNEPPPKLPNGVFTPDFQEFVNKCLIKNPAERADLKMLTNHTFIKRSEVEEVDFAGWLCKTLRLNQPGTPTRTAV
Experimental: as §1, §2

MKNK1 = target: T5, MKNK1 (Homo sapiens, UniProt Q9BUB5); assay: panel of 402 kinases: MKNK1; format: binding; details: read-out: residual activity relatively to control
T5 construct: purchased KinomeScan
Experimental: as §1, §2

MKNK2 = target: T6, MKNK2 (Homo sapiens, UniProt Q9HBH9); assay: panel of 402 kinases: MKNK2; format: binding; details: read-out: residual activity relatively to control
T6 construct: purchased KinomeScan
Experimental: as §1, §2

PDGFRα = target: T7, PDGFRα (Homo sapiens, UniProt P16234); assay: panel of 402 kinases: PDGFRα; format: binding; details: read-out: residual activity relatively to control
T7 construct: purchased KinomeScan
Experimental: as §1, §2

PDGFRβ = target: T8, PDGFRβ (Homo sapiens, UniProt P09619); assay: panel of 402 kinases: PDGFRβ; format: binding; details: read-out: residual activity relatively to control
T8 construct: purchased KinomeScan
Experimental: as §1, §2

TAK1 = target: T9, TAK1 (Homo sapiens, UniProt O43318); assay: panel of 402 kinases: TAK1; format: binding; details: read-out: residual activity relatively to control
T9 construct: purchased KinomeScan
T9 sequence (O43318 whole entry): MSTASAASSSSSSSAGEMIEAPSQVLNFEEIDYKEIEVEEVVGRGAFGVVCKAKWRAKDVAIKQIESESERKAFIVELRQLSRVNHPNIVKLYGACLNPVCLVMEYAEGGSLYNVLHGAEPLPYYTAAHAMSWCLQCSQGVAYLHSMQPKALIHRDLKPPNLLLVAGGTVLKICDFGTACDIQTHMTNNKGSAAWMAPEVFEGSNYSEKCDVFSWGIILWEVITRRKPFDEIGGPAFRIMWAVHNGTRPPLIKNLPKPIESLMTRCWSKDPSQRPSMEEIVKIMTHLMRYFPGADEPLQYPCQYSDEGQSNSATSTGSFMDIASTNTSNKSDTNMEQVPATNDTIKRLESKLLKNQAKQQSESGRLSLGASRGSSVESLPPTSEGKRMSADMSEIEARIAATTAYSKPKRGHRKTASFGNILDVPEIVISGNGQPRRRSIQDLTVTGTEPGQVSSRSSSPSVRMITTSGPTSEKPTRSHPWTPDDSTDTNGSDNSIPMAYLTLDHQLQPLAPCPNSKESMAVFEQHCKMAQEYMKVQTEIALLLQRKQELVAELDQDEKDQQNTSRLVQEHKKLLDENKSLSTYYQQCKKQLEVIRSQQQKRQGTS
Experimental: as §1, §2

TGFR2 = target: T10, TGFR2 (Homo sapiens, UniProt P37173); assay: panel of 402 kinases: TGFR2; format: binding; details: read-out: residual activity relatively to control
T10 construct: purchased KinomeScan
Experimental: as §1, §2

CDKL5 = target: T11, CDKL5 (Homo sapiens, UniProt O76039); assay: panel of 402 kinases: CDKL5; format: binding; details: 1 μM
T11 construct: purchased KinomeScan
Experimental: as §1, §2

ERK1 = target: T12, ERK1 (Homo sapiens, UniProt P27361); assay: panel of 402 kinases: ERK1; format: binding; details: 1 μM
T12 construct: purchased KinomeScan
Experimental: as §1, §2

GSK3β = GSK3β (Homo sapiens, UniProt P49841); assay: panel of 402 kinases: GSK3β; format: binding; details: 1 μM
Experimental: as §1, §2

NIK = target: T13, NIK (Homo sapiens, UniProt Q99558); assay: panel of 402 kinases: NIK; format: binding; details: 1 μM
T13 construct: purchased KinomeScan
T13 sequence (Q99558 whole entry): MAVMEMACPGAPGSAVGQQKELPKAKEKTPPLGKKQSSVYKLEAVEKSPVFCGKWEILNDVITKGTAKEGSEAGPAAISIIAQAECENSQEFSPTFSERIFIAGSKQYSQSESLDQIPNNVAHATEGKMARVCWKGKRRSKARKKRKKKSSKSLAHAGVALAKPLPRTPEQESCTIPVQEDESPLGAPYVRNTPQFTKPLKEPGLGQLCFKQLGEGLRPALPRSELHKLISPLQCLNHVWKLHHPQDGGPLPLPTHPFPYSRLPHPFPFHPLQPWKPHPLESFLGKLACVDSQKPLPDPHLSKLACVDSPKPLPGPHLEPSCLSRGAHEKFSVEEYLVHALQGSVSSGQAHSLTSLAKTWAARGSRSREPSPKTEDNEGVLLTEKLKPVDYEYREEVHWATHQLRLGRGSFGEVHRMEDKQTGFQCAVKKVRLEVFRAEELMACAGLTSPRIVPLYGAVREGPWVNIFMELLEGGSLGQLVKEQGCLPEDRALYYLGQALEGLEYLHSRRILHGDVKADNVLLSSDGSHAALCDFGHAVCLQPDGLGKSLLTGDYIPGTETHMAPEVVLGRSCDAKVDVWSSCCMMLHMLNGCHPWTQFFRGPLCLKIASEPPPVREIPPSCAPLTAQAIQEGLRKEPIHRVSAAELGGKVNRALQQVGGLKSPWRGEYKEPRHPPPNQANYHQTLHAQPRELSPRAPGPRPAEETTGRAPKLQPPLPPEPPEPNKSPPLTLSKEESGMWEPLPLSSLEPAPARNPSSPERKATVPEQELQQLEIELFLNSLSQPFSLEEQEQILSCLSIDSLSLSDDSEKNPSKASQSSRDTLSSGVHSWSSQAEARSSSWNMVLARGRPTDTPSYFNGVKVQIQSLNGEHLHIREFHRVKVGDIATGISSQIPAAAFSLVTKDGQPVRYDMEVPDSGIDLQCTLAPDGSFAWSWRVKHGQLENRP
Experimental: as §1, §2

NLK = target: T14, NLK (Homo sapiens, UniProt Q9UBE8); assay: panel of 402 kinases: NLK; format: binding; details: 1 μM
T14 construct: purchased KinomeScan
T14 sequence (Q9UBE8 whole entry): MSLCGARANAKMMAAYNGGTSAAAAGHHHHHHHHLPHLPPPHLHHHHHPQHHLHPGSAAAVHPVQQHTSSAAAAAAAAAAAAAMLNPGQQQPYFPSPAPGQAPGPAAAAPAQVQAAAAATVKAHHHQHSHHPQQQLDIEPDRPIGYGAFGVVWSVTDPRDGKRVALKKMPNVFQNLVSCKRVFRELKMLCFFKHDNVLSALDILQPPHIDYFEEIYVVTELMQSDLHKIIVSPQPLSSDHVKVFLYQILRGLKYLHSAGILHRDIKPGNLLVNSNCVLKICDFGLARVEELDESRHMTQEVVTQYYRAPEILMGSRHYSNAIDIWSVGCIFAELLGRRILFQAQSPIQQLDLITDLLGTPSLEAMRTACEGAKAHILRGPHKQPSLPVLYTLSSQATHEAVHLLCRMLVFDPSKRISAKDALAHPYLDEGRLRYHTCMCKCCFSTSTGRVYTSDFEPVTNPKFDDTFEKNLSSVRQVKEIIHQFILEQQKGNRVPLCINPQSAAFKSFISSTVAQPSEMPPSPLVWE
Experimental: as §1, §2

PRP4 = target: T15, PRP4 (Homo sapiens, UniProt Q13523); assay: panel of 402 kinases: PRP4; format: binding; details: 1 μM
T15 construct: purchased KinomeScan
T15 sequence (Q13523 whole entry): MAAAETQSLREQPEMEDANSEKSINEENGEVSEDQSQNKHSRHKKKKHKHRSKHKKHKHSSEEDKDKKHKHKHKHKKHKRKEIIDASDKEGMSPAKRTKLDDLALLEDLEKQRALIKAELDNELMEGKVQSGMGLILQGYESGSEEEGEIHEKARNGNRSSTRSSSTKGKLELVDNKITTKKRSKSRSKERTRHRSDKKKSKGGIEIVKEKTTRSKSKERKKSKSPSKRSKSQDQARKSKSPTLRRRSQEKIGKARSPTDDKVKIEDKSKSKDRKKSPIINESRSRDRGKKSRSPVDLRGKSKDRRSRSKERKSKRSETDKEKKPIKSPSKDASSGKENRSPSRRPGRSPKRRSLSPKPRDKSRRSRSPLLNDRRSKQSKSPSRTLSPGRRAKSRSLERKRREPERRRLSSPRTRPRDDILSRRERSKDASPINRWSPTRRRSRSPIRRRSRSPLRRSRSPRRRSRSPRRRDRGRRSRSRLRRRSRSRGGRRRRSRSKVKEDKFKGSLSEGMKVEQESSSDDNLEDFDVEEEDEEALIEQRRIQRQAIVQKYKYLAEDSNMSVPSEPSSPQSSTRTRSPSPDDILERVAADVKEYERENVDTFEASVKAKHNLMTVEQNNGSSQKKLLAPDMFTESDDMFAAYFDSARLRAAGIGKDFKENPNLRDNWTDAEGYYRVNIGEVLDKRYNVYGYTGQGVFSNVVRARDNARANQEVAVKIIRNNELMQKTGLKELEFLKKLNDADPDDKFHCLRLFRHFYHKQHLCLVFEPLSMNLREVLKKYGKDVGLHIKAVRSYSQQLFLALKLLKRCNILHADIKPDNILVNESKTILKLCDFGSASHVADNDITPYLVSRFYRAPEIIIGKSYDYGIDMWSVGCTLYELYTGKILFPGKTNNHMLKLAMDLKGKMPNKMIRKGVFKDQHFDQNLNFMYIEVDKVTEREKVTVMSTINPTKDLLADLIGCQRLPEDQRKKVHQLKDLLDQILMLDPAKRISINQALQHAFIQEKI
Experimental: as §1, §2

Flt3 D835Y = Flt3 D835Y (Homo sapiens, UniProt P36888, D835Y); assay: kinase mutants: Flt3 D835Y; format: binding; details: gain of function mutation
Experimental: as §1
(§3) The two compounds were also evaluated against a series of mutations of Flt3 and KIT. It is known that several mutation in Flt3 lead to a gain of function or constitutive activity.

Flt3 K663Q = Flt3 K663Q (Homo sapiens, UniProt P36888, K663Q); assay: kinase mutants: Flt3 K663Q; format: binding; details: gain of function mutation
Experimental: as §1, §3

Flt3 N841L = assay: kinase mutants: Flt3 N841L; format: binding; details: gain of function mutation
Experimental: as §1, §3

KIT D816V = KIT D816V (Homo sapiens, UniProt P10721, D816V); assay: kinase mutants: KIT D816V; format: binding; details: gain of function mutation
KIT D816V, sequence (P10721 26-976 D816V): as the sequence (P10721 26-976) above, with D791V counted along it
Experimental: as §1, §3

KIT L576P = KIT L576P (Homo sapiens, UniProt P10721, L576P); assay: kinase mutants: KIT L576P; format: binding; details: gain of function mutation
KIT L576P, sequence (P10721 26-976 L576P): as the sequence (P10721 26-976) above, with L551P counted along it
Experimental: as §1, §3

KIT V559D = KIT V559D (Homo sapiens, UniProt P10721, V559D); assay: kinase mutants: KIT V559D; format: binding; details: gain of function mutation
KIT V559D, sequence (P10721 26-976 V559D): as the sequence (P10721 26-976) above, with V534D counted along it
Experimental: as §1, §3

KIT V559D, T670I = KIT V559D, T670I (Homo sapiens, UniProt P10721, T670I/V559D); assay: kinase mutants: KIT V559D, T670I; format: binding; details: dual mutation conferring resistance to imatinib
KIT V559D, T670I, sequence (P10721 26-976 V559D/T670I): as the sequence (P10721 26-976) above, with V534D, T645I counted along it
Experimental: as §1, §3

KIT V559D, V654A = KIT V559D, V654A (Homo sapiens, UniProt P10721, V559D/V654A); assay: kinase mutants: KIT V559D, V654A; format: binding; details: dual mutation conferring resistance to imatinib
KIT V559D, V654A, sequence (P10721 26-976 V559D/V654A): as the sequence (P10721 26-976) above, with V534D, V629A counted along it
Experimental: as §1, §3

## CCOCOc1cc2c(c(OCOCC)c1)C(=O)O[C@@H](C)C/C=C(/F)C(OC(=O)c1ccccc1)[C@H]1OC(C)(C)O[C@H]1C/C=C/2 (stereo partly shown)
[1]; from CCOCOc1cc(/C=C/C[C@@H]2OC(C)(C)O[C@@H]2C(OC(=O)c2ccccc2)/C(F)=C\C[C@@H](C)O)c(C(=O)O)c(OCOCC)c1, 10.2 mM
  ring closure, yield of all isomers: 74%

## CCOCOc1cc2c(c(OCOCC)c1)C(=O)O[C@@H](C)C/C=C(/F)C(OC(=O)c1ccccc1)[C@H]1OC(C)(C)O[C@H]1CCO2 (stereo partly shown)
[1]; from CCOCOc1cc(OCC[C@@H]2OC(C)(C)O[C@@H]2C(OC(=O)c2ccccc2)/C(F)=C\C[C@@H](C)O)c(C(=O)O)c(OCOCC)c1, 10.5 mM
  ring closure, yield of all isomers: 70%

## CCOc1cc2ncc(C#N)c(Nc3ccc(F)c(Cl)c3)c2cc1NC(=O)/C=C/CN(C)C [EKB-569]
[2]
  safety in phase I clinical trial: safe

## C[C@H]1C/C=C\C(=O)[C@@H](O)[C@@H](O)CCCc2cc(O)cc(O)c2C(=O)O1 [1afh]
Panel of kinases (402)
  number of kinases outside of the set of 46 predicted kinases showing significant inhibition (STK36 and PRKD2): two
Panel of kinases (402); 31 of the 46 predicted kinases
  number of kinases out of 31 with more than 50% residual activity: 11
Flt1
  remaining activity at 1 µM: < 10%
Flt3
  remaining activity at 1 µM: < 10%
GAK
  remaining activity at 1 µM: < 10%
KIT
  remaining activity at 1 µM: < 10%
MEK1
  remaining activity at 1 µM: < 10%
MEK2
  remaining activity at 1 µM: < 10%
MKNK1
  remaining activity at 1 µM: < 10%
MKNK2
  remaining activity at 1 µM: < 10%
PDGFRα
  remaining activity at 1 µM: < 10%
PDGFRβ
  remaining activity at 1 µM: < 10%
TAK1
  remaining activity at 1 µM: < 10%
TGFR2
  remaining activity at 1 µM: < 10%
CDKL5
  inhibition: not inhibited
ERK1
  inhibition: not inhibited
GSK3β
  inhibition: not inhibited
NIK
  inhibition: not inhibited
NLK
  inhibition: not inhibited
PRP4
  inhibition: not inhibited
Flt3 D835Y
  activity against mutant compared with wild type: more active than against the wild type
Flt3 K663Q
  sensitivity of mutant to the inhibitors: remained equally sensitive
Flt3 N841L
  sensitivity of mutant to the inhibitors: remained equally sensitive
KIT D816V
  activity against mutant: retained their activity
KIT L576P
  activity against mutant: retained their activity
KIT V559D
  activity against mutant: retained their activity
KIT V559D, T670I
  activity against dual mutation: not active
KIT V559D, V654A
  activity against dual mutation: not active
